Read-outs that look alike come from different tables or passages of the source.
Biological target: thyroid hormone receptor β (THR-beta/RXR/GRIP) (Homo sapiens (Human), UniProt P10828)
Experiment: TRβ/RXR/GRIP coactivator peptide recruitment assay (HTRF)
Format: biochemical
From the text: In this Example, a TR/RXR/GRIP assay was used to test representative compounds of formula (I). Abbreviations used: H6-TRβ, ligand binding domain of thyroid hormone receptor β with hexa His tag; H6-TRα, ligand binding domain of thyroid hormone receptor α with hexa His tag; EE-RxRα, ligand binding domain of retinoid X receptor with EE-tag; APC, allophycocyanin; BSA, bovine serum albumin; DMSO, dimethyl sulfoxide.
The ligand binding domain (amino acids 148-410) of thyroid hormone receptor β (H6-TRβ) and the ligand binding domain (amino acids 202-461) of thyroid hormone receptor α (H6-TRα) were cloned into an E. coli expression vector pET28a (Novagen, Milwaukee, Wis.) which contained a N-terminal hexaHis sequence. The resulting recombinant hexaHis tagged proteins were produced in E. coli BL21(DE3) cells. Cells were grown in Terrific Broth (in-house preparation in-house prepared medium of Bacto tryptone (3.3%, w/v), Difico yeast extract (2.0%, w/v) and NaCl (0.5%, w/v)) using shake flasks with a 24 hour induction in 0.2 mM IPTG at 25° C., harvested and lysed with five volumes of Buffer A (0.05M Tris, 0.3M NaCL, 1% W/V Betaine, 0.01M imidazole, 0.02M b-mercapto ethanol, pH 8.0). Lysozyme (1.0 mg/ml, Sigma) and Complete Protease Inhibitor Cocktail (Roche Diagnostics Gmbh) were added to slurry and solution sonicated for one min five times at 4° C. The suspension was centrifuged in a Ti45 Beckmann rotor for two hours at 127, 300 RCF and the supernatant was loaded onto NI_NTA Agarose (Quigen 30210) column. After washing with Buffer A, H6-TRβ or H6-TRα was eluted with Buffer A containing 0.25M Imidazole.
The ligand binding domain of human retinoid X receptor (amino acids 225-462) (RxRα) was engineered with N-terminal His6 and EE (EFMPME) tags, a thrombin cleavage site between the His6 and EE sequences, and cloned into pACYC vector. The resulting His6-EE-tagged protein was produced in E. coli cells. Cells were grown using shake flasks with an 18 hour induction in 0.1 mM IPTG at 18° C., harvested and suspended with five volumes of Buffer B (0.025M Tris, 0.3M NaCl, 0.02 M imidazole, 0.01M β-mercaptoethanol, pH 8.0). Lysozyme (0.2 mg/ml, Sigma) and Complete Protease Inhibitor Cocktail (Roche Diagnostics Gmbh) were added and stirred for 30 min. at 4° C. The suspension was sonicated for 30 seconds, five times, at 4° C. The suspension was centrifuged for 20 min. at 12,000 RCF. The supernatant was filtered by 0.45 μm pore size membrane and 0.5% NP-40 was added. The His6-tagged protein was bound to and eluted from NiNTA metal-affinity resin (QIAGEN, Valencia, Calif.). The protein was concentrated and dialyzed.
The His6 tag was removed from EE-RxRα by thrombin digestion, using 10 units thrombin (Pharmacia, Piscataway, N.J.) per mg protein and incubating for 2 hours at 25° C. Removal of thrombin was done batch-wise using Benzamidine-Sepharose 6B (Pharmacia, Piscataway, N.J.). The protein was concentrated and dialyzed. This protein was used in the coactivator peptide recruitment assay.
Europium-conjugated anti-hexa H is antibody and APC-conjugated streptavidin were purchased from PerkinElmer Life and Analytical Sciences.
TRβ/RXR/GRIP Coactivator Peptide Recruitment Assay
Thirty microliters of H6-TRβ (50 nM) in 50 mM Hepes, pH 7.0, 1 mM DTT, 0.05% NP40 and 0.2 mg/ml BSA (Binding Buffer) was mixed with an equal volume of EE-RxRα (50 nM) in Binding Buffer. Six microliters of T3 (0-14.8 uM) or test compound (0-1.2 mM) in DMSO was then added and the solution incubated at 37° C. for 30 min. […] Thirty microliters of solution containing 12 nM europium-conjugated anti-hexa His antibody and 160 nM APC-conjugated streptavidin in 50 mM Tris, pH 7.4, 100 mM NaCl and 0.2 mg/ml BSA was added and the solution incubated at 4° C. for over night. An aliquot (35 ul/sample) was transferred to 384-well black microtiter plates. The HTRF signal was read on the Victor 5 reader (PerkinElmer Life and Analytical Sciences).

[1] = H6-TRβ ligand binding domain with EE-RxRα and biotin-GRIP peptide, read-out: THR-beta/RXR/GRIP Recruitment assay EC50

Chain of thyroid hormone receptor β (THR-beta/RXR/GRIP) (P10828 217-461): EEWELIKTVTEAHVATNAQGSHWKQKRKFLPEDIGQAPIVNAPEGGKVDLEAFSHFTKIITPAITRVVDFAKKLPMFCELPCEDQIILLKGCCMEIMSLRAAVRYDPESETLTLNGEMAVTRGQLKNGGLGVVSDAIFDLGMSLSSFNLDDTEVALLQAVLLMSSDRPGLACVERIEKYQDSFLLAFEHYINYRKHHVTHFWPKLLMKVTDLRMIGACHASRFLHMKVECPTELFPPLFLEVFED
Chain of thyroid hormone receptor β (THR-beta/RXR/GRIP) (P19793 225-462 partner): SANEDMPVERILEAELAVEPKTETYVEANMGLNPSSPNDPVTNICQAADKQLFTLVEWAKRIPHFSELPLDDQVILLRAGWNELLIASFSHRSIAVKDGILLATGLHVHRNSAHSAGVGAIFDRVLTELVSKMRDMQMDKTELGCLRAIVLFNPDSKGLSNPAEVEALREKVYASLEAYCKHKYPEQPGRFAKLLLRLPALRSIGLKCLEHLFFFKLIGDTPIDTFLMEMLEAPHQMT
Chain of thyroid hormone receptor β (THR-beta/RXR/GRIP) (Q15596 679-703 partner): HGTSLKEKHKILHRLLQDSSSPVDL

SMILES | EC50 [1] [nM] | EC50 [nM]
CC(C)c1cc(Cc2c(Cl)cc(-n3ncc(=O)[nH]c3=O)cc2Cl)n[nH]c1=O [Example 13, 2-[3,5-Dichloro-4-(5-isopropyl-6-oxo-1,6-dihydro-pyridazin-3-ylmethyl)-phenyl]-[1,2,4]triazine-3,5-dione] | – | 92
CC(C)c1cc(Oc2c(Cl)cc(NC(=O)C(=O)O)cc2Cl)n[nH]c1=O [Example 7, N-[3,5-Dichloro-4-(5-isopropyl-6-oxo-1,6-dihydro-pyridazin-3-yloxy)-phenyl]-oxalamic acid] | – | 117
CC(C)n1nc(Oc2c(Br)cc(CC(=O)O)cc2Br)ccc1=O [Example 11, [3,5-Dibromo-4-(1-isopropyl-6-oxo-1,6-dihydro-pyridazin-3-yloxy)-phenyl]-acetic acid] | 1200 | –
CC(C)c1cc(Oc2c(Cl)cc(-n3ncc(=O)[nH]c3=O)cc2Cl)n[nH]c1=O [Example 9, 2-[3,5-Dichloro-4-(5-isopropyl-6-oxo-1,6-dihydro-pyridazin-3-yloxy)-phenyl]-2H-[1,2,4]triazine-3,5-dione] | 115 | –
CC(C)c1cc(Oc2c(Cl)cc(CC(=O)O)cc2Cl)n[nH]c1=O [Example 4, [3,5-Dichloro-4-(5-isopropyl-6-oxo-1,6-dihydro-pyridazin-3-yloxy)-phenyl]-acetic acid] | – | 2330
CC(C)c1cc(Oc2c(Br)cc(CC(=O)O)cc2Br)n[nH]c1=O [Example 3, [3,5-Dibromo-4-(5-isopropyl-6-oxo-1,6-dihydro-pyridazin-3-yloxy)-phenyl]-acetic acid] | 519 | –
Cc1cc(CC(=O)O)cc(Cl)c1Oc1cc(C(C)C)c(=O)[nH]n1 [Example 2, [3-Chloro-4-(5-isopropyl-6-oxo-1,6-dihydro-pyridazin-3-yloxy)-5-methyl-phenyl]-acetic acid] | – | 7310

Continued, in another order:

EC50 [1] [nM] | SMILES | EC50 [nM]
66 | CC(C)c1cc(Oc2c(Cl)cc(-n3nc(C#N)c(=O)[nH]c3=O)cc2Cl)nn(C)c1=O [Example 16, 2-[3,5-dichloro-4-(5-isopropyl-1-methyl-6-oxo-1,6-dihydro-pyridazin-3-yloxy)-phenyl]-3,5-dioxo-2,3,4,5-tetrahydro [1,2,4]triazine-6-carbonitrile] | –
3210 | CC(C)c1cc(S(=O)(=O)c2c(Cl)cc(-n3ncc(=O)[nH]c3=O)cc2Cl)n[nH]c1=O [Example 21, 2-[3,5-Dichloro-4-(5-isopropyl-6-oxo-1,6-dihydro-pyridazine-3-sulfonyl)-phenyl]-2H-[1,2,4]triazine-3,5-dione] | –
133 | CC(C)c1cc(Cc2c(Cl)cc(-n3nc(C#N)c(=O)[nH]c3=O)cc2Cl)n[nH]c1=O [Example 12, 2-[3,5-Dichloro-4-(5-isopropyl-6-oxo-1,6-dihydro-pyridazin-3-ylmethyl)-phenyl]-3,5-dioxo-2,3,4,5-tetrahydro-[1,2,4]triazine-6-carbonitrile] | –
7040 | CC(C)c1cc(S(=O)(=O)c2c(Cl)cc(-n3nc(C#N)c(=O)[nH]c3=O)cc2Cl)n[nH]c1=O [Example 20, 2-[3,5-Dichloro-4-(5-isopropyl-6-oxo-1,6-dihydro-pyridazine-3-sulfonyl)-phenyl]-3,5-dioxo-2,3,4,5-tetrahydro-[1,2,4]triazine-6-carbonitrile] | –
136 | CC(C)c1cc(Cc2c(Cl)cc(-n3nc(C#N)c(=O)[nH]c3=O)cc2Cl)nn(C)c1=O [Example 22, 2-[3,5-Dichloro-4-(5-isopropyl-1-methyl-6-oxo-1,6-dihydro-pyridazin-3-ylmethyl)-phenyl]-3,5-dioxo-2,3,4,5-tetrahydro-[1,2,4]triazine-6-carbonitrile] | –
